Test [1] concerns the target T1, human sodium channels Nav 1.7 (Homo sapiens, UniProt Q15858).
T1 construct: expressed in transfected cells
As to the kind of experiment: Automated whole-cell voltage-clamp (ScreenPatch 384P) sodium current block, Nav 1.7. Format: cell-based. To be noted: CHO cells stably expressing human Nav 1.7; inactivation step -40 mV 8 s, test step 0 mV (TP1A); eight concentrations; exposure at least five minutes; room temperature; read-out: Nav1.7 IC50. Put shortly: (§1)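 Stable CHO lines, whole-cell automated patch clamp at room temperature, ≥5 min exposure, eight concentrations. From -100 mV hold, 8 s at -40 mV, 20 ms at -100 mV, then test pulse to 10 mV (Nav 1.8) or 0 mV (Nav 1.7) at 0.05 Hz; peak-current % block fitted for IC50, averaged over repeats.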

For test [2], the target named is T2, human sodium channels Nav 1.8 (Homo sapiens, UniProt Q9Y5Y9).
T2 construct: expressed in transfected cells
T2 sequence (Q9Y5Y9 whole entry): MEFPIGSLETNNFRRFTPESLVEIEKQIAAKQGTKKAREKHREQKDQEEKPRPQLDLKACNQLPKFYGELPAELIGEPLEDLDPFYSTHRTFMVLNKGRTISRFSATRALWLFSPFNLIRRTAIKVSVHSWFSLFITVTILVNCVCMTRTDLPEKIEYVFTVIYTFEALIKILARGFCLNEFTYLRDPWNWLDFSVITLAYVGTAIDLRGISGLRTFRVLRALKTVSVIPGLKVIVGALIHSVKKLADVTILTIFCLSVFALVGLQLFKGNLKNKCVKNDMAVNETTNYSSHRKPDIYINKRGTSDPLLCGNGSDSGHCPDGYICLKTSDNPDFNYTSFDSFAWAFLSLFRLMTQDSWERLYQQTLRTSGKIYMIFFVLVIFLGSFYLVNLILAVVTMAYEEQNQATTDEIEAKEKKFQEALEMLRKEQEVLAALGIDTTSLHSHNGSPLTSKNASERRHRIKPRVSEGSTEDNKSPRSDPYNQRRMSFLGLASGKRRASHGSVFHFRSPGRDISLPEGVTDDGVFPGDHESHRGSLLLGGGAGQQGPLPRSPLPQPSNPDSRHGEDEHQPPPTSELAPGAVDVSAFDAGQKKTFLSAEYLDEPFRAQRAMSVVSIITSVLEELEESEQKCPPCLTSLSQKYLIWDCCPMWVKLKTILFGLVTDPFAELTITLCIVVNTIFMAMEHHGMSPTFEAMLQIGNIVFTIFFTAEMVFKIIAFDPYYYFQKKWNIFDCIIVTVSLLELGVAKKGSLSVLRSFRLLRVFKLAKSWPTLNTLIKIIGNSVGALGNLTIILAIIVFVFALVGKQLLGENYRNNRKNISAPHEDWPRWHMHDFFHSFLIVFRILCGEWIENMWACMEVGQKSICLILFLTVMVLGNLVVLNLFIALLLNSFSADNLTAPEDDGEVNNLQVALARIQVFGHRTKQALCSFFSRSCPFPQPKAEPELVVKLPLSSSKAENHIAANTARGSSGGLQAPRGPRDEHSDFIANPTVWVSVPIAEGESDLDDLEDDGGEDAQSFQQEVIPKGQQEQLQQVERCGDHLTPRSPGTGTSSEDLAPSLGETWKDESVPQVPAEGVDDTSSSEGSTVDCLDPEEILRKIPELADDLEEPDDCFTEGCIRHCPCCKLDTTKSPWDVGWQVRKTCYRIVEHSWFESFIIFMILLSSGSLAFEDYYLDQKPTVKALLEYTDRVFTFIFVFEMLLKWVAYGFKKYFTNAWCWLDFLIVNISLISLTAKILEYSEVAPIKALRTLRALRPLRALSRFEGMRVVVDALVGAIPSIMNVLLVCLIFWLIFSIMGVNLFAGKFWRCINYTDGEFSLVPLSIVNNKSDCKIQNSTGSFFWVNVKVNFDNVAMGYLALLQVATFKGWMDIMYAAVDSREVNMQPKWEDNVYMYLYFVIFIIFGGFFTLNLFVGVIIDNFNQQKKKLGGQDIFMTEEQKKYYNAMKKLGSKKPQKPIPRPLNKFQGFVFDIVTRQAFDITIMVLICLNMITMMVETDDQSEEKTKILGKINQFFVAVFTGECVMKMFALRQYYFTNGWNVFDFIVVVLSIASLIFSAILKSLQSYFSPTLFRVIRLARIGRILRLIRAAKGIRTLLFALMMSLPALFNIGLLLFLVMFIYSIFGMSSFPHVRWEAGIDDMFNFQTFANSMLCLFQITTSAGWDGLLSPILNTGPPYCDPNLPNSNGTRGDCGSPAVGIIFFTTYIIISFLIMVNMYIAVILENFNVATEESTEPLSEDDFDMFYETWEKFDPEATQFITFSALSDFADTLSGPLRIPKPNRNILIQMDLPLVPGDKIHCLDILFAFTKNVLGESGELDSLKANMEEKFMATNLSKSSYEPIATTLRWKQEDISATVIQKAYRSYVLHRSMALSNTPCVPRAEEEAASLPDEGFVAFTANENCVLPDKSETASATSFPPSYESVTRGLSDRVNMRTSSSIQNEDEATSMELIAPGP
Briefly: Automated whole-cell voltage-clamp (ScreenPatch 384P) sodium current block, Nav 1.8. In kind it is cell-based. As to conditions: CHO cells stably expressing human Nav 1.8; inactivation step -40 mV 8 s, test step 10 mV (TP1A); eight concentrations; exposure at least five minutes; room temperature; read-out: Nav1.8 IC50. Put shortly:
as §1

A value given as a limit tells only on which side of the number the result lay.

T1 sequence (Q15858 whole entry): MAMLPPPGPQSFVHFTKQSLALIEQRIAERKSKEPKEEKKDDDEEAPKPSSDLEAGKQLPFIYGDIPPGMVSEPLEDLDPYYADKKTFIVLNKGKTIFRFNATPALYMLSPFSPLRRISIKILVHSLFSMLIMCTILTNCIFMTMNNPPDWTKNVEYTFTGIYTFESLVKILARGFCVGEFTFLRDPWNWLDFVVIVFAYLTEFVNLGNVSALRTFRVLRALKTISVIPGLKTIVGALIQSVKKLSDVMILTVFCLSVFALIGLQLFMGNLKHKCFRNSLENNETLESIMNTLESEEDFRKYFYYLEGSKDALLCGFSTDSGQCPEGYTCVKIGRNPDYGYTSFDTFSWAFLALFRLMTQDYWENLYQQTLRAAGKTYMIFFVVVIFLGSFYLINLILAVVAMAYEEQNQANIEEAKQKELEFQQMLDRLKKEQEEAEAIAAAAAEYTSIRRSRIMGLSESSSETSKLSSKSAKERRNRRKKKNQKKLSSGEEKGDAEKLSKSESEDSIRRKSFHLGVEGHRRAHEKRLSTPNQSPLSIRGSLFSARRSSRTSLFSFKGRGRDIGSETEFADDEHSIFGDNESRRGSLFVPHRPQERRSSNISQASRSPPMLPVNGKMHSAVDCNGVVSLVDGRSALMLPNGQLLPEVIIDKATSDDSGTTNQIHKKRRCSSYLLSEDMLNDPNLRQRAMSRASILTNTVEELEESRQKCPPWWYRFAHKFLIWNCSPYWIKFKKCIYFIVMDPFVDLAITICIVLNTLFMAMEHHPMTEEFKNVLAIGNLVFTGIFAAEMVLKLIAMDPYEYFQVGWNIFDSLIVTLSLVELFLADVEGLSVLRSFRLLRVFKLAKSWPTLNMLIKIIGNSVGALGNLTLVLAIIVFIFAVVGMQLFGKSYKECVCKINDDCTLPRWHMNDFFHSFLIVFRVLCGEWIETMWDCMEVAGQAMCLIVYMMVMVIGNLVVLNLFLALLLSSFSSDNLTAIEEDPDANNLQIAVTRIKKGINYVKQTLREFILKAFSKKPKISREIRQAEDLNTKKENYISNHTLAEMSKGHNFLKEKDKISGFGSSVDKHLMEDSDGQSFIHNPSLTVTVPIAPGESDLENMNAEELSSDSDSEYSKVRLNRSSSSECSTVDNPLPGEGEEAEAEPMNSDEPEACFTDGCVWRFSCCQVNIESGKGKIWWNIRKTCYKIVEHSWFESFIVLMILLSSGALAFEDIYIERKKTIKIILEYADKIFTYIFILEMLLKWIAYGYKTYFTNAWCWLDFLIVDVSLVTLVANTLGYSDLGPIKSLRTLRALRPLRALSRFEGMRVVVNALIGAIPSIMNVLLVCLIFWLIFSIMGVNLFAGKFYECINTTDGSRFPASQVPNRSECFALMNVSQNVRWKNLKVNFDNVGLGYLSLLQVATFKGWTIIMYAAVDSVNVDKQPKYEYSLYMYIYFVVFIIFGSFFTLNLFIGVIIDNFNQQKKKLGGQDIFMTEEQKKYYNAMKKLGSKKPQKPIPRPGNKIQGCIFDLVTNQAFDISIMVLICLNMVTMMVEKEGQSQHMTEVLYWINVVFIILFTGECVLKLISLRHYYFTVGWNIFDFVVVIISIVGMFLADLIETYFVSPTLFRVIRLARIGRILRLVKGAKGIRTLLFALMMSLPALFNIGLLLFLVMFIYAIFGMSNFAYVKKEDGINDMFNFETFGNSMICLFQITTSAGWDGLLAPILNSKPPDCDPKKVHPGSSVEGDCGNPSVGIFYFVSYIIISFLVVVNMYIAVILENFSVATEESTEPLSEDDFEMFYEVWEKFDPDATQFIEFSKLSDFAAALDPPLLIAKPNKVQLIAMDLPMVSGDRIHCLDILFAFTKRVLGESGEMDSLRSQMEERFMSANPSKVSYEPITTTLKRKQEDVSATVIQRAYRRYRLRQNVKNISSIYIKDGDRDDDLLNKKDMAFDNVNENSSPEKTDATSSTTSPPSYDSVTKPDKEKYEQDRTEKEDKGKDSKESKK

Consider `COc1cnc(C)c(/C=N/NC(=O)c2cncc(-c3ccc(OC(F)F)nc3)n2)c1` [Compound 103, (E)-6-(6-(difluoromethoxy)pyridine-3-yl)-N'-((5-methoxy-2-methylpyridine-3-yl)methylene)pyrazine-2-carbohydrazide], for which the results for the half-inhibitory concentration (IC50) in test [1] and in test [2] were more than 1 µM and less than 0.5 µM, respectively.

Consider `COc1ccc(F)c(/C=N/NC(=O)c2cncc(-c3ccc(OC(F)F)nc3)n2)c1` [Compound 100, (E)-6-(6-(difluoromethoxy)pyridine-3-yl)-N'-(2-fluoro-5-methoxybenzylidene) pyrazine-2-carbohydrazide], for which the figures for the IC50 in test [1] and in test [2] were 0.5 to 1 µM and less than 0.5 µM, respectively.

Regarding `COc1cc(/C=N/NC(=O)c2cncc(-c3ccc(OC(F)F)nc3)n2)cc(O)n1` [Compound 118, (E)-6-(6-(difluoromethoxy)pyridine-3-yl)-N'-((2-hydroxy-6-methoxypyridine-4-yl)methylene)pyrazine-2-carbohydrazide], the IC50 in test [1] and in test [2] was more than 1 µM each time.

Regarding `CCOc1ccc(-c2cncc(C(=O)N/N=C/c3cc(N4CCC4)ccc3F)n2)cn1` [Compound 38, (E)-N'-(5-(azetidin-1-yl)-2-fluorobenzylidene)-6-(6-ethoxypyridine-3-yl)pyrazine-2-carbohydrazide], the IC50 in test [1] is more than 1 µM; in test [2], less than 0.5 µM.

`COc1cnc(F)c(/C=N/NC(=O)c2ccnc(-c3ccc(OC(F)F)nc3)n2)c1` [Compound 126, (E)-2-(6-(difluoromethoxy)pyridine-3-yl)-N'-((2-fluoro-5-methoxypyridine-3-yl)methylene) pyrimidine-4-carbohydrazide]: the values for the IC50 in test [1] and in test [2] were more than 1 µM and 0.5 to 1 µM, respectively.

Consider `CCOc1ccc(-c2nc(C(=O)N/N=C/c3cccn3C)cnc2O)cn1` [Compound 69, (E)-6-(6-ethoxypyridine-3-yl)-5-hydroxy-N'-((1-methyl-1H-pyrrole-2-yl)methylene)pyrazine-2-carbohydrazide], for which the IC50 in test [1] and in test [2] was more than 1 µM each time.

Consider `CCOc1ccc(-c2cncc(C(=O)N/N=C/c3cc(C(C)O)ccc3F)n2)cn1` (stereo not drawn) [Compound 23, (E)-6-(6-ethoxypyridine-3-yl)-N'-(2-fluoro-5-(1-hydroxyethyl)benzylidene)pyrazine-2-carbohydrazide], for which the figures for the half-inhibitory concentration (IC50) in test [1] and in test [2] were more than 1 µM and less than 0.5 µM, respectively.

For the compound `COc1cc(O)c(F)c(/C=N/NC(=O)c2cncc(-c3ccc(OC(F)F)nc3)n2)c1` [Compound 119, (E)-6-(6-(difluoromethoxy)pyridine-3-yl)-N'-(2-fluoro-3-hydroxy-5-methoxybenzylidene)pyrazine-2-carbohydrazide], the concentration for half-maximal inhibition (IC50) in test [1] is more than 1 µM; in test [2], 0.5 to 1 µM.

Take `CCOc1ccc(-c2cncc(C(=O)N/N=C/c3cc(OC)cnc3O)n2)cn1` [Compound 42, (E)-6-(6-ethoxypyridine-3-yl)-N'-((2-hydroxy-5-methoxypyridine-3-yl)methylene) pyrazine-2-carbohydrazide]: the 50% inhibitory concentration (IC50) in test [1] and in test [2] was more than 1 µM each time.

On to `CC[S+]([O-])c1ccc(-c2cncc(C(=O)N/N=C/c3cc(OC)ccc3F)n2)cn1` (stereo not drawn) [Compound 132, (E)-6-(6-(ethylsulfinyl)pyridine-3-yl)-N'-(2-fluoro-5-methoxybenzylidene)pyrazine-2-carbohydrazide], for which the IC50 in test [1] and in test [2] was more than 1 µM each time.

`COc1cc(/C=N/NC(=O)c2cncc(-c3ccc(OC4CC4)nc3)n2)c(F)cc1F` [Compound 78, (E)-6-(6-cyclopropoxypyridine-3-yl)-N'-(2,4-difluoro-5-methoxybenzylidene) pyrazine-2-carbohydrazide]: the IC50 in test [1] and in test [2] was less than 0.5 µM throughout.

On to `CCOc1ccc(-c2cncc(C(=O)N/N=C/c3cc(OC4CNC4)ccc3F)n2)cn1` [Compound 20, (E)-N'-(5-(azetidine-3-yloxy)-2-fluorobenzylidene)-6-(6-ethoxypyridine-3-yl)pyrazine-2-carbohydrazide], for which the IC50 in test [1] and in test [2] was more than 1 µM each time.

The values above are taken from patent publication EP4660182A1, “NAV1.7- AND/OR NAV1.8-INHIBITING ARYL PYRIDINE COMPOUNDS, PROCESSES FOR THE PREPARATION THEREOF, COMPOSITIONS, USES, METHODS FOR TREATMENT USING SAME, AND KITS” (Eurofarma Laboratórios S.A., priority 2023, dated 2024).
